Measurements from paper PMC5691768, “Comparison of the Micellar Incorporation and the Intestinal Cell Uptake of Cholecalciferol, 25-Hydroxycholecalciferol and 1-α-Hydroxycholecalciferol” (Nutrients, 2017).

How the values were obtained:
[1] = parameters: method as in PubChem Website; settings: ref PubChem Website; cited from earlier work
Caco-2 clone TC-7 cells = test: Apical uptake of micellar vitamin D forms by Caco-2 cell monolayers; format: in vitro ADME, human; settings: 1 h incubation, mixed micelles; for uptake rate by Caco-2 cells at high concentration: >5 µM apical, n = 6; for uptake rate by Caco-2 cells at low concentration: <1 µM apical, n = 3
Method: (§1) Caco-2 clone TC-7 cells were cultured as previously described. For each experiment, cells were seeded and grown on Millicell® hanging cell culture inserts (Millipore S.A.S., Molsheim, France) for 21 days to obtain confluent and highly differentiated cell monolayers. Twelve hours prior to each experiment, the medium in both the apical and basolateral chambers was replaced with serum-free complete medium. The apical uptake of vitamin D forms incorporated in mixed micelles was determined after a 1 h-incubation period in the presence or absence of inhibitors, as previously described. The % of vitamin D taken up was estimated as the quantity of vitamin D present in the harvested cells divided by the sum of the quantity of vitamin D remaining in the apical chamber and that present in the harvested cells. The efflux of vitamin D forms incorporated in mixed micelles was determined as previously described, with minor changes. Briefly, cells first received the vitamin D-rich micelles at the apical side for 4 h. They were then washed once with PBS and equilibrated in serum-free complete medium for 15 min. Cells were either harvested (control) or they received apical medium containing vitamin D-free mixed micelles for 1 h. The % of vitamin D effluxed back to the apical side was estimated as the quantity of vitamin D present in the apical chamber divided by the quantity of vitamin D present in the harvested cells at t0.
(§2) Vitamin D forms were extracted from 500 µL aqueous samples using the method previously described. The internal standard was retinyl acetate for D3 and ergocalciferol for both 25(OH)D3 and 1α(OH)D3. After lipid extraction with hexane, dried residues were dissolved in 200 µL of mobile phase (acetonitrile/methanol/water, 60/38/2, v/v/v). A volume of 160 µL was used for HPLC analysis.
(§3) The HPLC system and method were set up according to previous studies. All molecules were identified by retention time compared with pure standards.

NPC1L1 = target: T1, NPC1L1 (Homo sapiens, UniProt Q9UHC9); test: Uptake by Caco-2 cells with NPC1L1 inhibition by ezetimibe glucuronide; format: in vitro ADME; settings: 10 µM ezetimibe glucuronide (NPC1L1 inhibitor), n = 3
T1 construct: endogenous in cells; host or cells: Caco-2 clone TC-7
T1 sequence (Q9UHC9 22-1359): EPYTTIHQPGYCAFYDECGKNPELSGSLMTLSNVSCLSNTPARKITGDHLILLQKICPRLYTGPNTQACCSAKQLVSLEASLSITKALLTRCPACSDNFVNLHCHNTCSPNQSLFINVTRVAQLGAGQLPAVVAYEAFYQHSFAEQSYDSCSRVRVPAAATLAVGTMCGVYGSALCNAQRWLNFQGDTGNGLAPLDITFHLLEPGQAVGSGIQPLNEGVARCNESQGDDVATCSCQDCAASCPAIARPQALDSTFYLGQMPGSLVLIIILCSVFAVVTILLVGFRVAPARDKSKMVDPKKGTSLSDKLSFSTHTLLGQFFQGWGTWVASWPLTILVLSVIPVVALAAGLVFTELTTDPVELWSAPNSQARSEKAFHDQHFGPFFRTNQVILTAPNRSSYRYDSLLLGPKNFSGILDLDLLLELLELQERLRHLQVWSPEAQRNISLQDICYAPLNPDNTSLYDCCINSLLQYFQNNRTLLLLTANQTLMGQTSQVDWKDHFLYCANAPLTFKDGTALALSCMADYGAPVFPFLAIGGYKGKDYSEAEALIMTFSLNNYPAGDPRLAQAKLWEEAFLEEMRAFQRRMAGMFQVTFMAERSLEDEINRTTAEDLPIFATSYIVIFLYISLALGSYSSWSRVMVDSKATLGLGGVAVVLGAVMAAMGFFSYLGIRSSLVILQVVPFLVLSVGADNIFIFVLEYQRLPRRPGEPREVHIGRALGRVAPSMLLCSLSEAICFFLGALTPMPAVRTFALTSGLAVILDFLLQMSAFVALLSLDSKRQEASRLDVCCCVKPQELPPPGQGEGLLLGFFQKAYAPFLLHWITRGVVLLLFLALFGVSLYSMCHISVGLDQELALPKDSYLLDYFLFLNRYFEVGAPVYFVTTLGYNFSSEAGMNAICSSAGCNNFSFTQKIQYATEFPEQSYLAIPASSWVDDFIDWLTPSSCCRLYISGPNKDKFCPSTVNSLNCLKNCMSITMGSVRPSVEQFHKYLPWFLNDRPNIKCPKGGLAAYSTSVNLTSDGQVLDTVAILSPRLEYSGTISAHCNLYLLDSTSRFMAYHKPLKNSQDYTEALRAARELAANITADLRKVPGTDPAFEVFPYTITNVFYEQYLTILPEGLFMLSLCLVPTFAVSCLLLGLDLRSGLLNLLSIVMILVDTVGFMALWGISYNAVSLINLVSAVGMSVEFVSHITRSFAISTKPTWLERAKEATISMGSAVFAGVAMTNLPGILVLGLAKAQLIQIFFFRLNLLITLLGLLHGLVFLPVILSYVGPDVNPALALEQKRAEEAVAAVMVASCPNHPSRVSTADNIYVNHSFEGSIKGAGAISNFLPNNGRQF
Method: as §1

SR-BI = target: T2, SR-BI (Homo sapiens, UniProt Q8WTV0); test: Uptake by Caco-2 cells with SR-BI inhibition by BLT1; format: in vitro ADME; settings: 10 µM BLT1 (SR-BI inhibitor), n = 3
T2 construct: endogenous in cells; host or cells: Caco-2 clone TC-7
T2 sequence (Q8WTV0 1-509 isoform Q8WTV0-2): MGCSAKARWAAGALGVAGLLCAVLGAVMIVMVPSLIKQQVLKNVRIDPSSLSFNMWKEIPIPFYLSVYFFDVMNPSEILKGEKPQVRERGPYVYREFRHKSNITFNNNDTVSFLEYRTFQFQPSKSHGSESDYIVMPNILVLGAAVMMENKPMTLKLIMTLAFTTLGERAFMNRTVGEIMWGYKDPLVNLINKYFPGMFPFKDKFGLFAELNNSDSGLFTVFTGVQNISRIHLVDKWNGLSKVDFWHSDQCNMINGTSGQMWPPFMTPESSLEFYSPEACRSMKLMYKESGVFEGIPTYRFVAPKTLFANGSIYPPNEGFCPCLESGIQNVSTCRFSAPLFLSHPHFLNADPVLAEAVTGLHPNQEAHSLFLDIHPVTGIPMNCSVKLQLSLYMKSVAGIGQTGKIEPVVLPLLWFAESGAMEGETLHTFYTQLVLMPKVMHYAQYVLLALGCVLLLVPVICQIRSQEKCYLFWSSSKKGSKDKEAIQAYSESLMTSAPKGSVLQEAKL
Method: as §1

[2] = Incorporation of vitamin D forms in synthetic mixed micelles; format: physicochemical; settings: for incorporation efficiency into synthetic mixed micelles: vitamin D form 0–20 µM, linear incorporation curves, n = 3
Method: Mixed micelles were formed as previously described. Briefly, monoolein (0.3 mM), oleic acid (0.5 mM), phosphatidylcholine (0.04 mM), lysophosphatidylcholine (0.16 mM), and cholesterol (0.1 mM) dissolved in trichloromethane/methanol (2:1, v/v) and vitamin D forms (concentration range: 0–20 µM) dissolved in ethanol were transferred to a glass tube, and the solvent mixture was carefully evaporated under nitrogen. The dried residue was dispersed in DMEM containing 5 mM sodium taurocholate and was incubated at 37 °C for 30 min. The solution was mixed by sonication in a bath sonicator (Branson 3510 MT, 40 kHz; Branson Ultrasonics, Danbury, CT, USA) for 30 min and then incubated at 37 °C for 1 h. It was then filtrated through cellulose ester membranes (0.22 µm) (Millipore S.A.S., Molsheim, France), and the resulting solution of vitamin D-rich mixed micelles was stored at −20 °C until cell culture experiment or vitamin extraction and HPLC analysis. Concentrations of the different forms in the micellar solutions were checked before each experiment.
as §2, §3

human ASBT = target: T3, human ASBT (Homo sapiens, UniProt Q12908); test: Uptake by Griptite cells overexpressing ASBT; format: in vitro ADME; settings: Griptite cells transfected with human ASBT vs empty plasmid, 37 °C, 1 h
T3 construct: host or cells: Griptite cells (HEK-293-derived, own knowledge)
T3 sequence (Q12908 1-348): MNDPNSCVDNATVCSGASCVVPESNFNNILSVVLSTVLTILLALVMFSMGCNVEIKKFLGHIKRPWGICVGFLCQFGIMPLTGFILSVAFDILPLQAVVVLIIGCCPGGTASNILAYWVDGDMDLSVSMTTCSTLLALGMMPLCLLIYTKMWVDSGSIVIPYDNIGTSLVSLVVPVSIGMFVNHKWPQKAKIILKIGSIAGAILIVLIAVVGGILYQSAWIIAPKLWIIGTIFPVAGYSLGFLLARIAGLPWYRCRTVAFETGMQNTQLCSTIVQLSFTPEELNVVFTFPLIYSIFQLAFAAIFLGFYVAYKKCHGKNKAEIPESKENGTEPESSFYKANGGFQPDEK
Method: Griptite cells were cultured and transfected with 3 µg DNA (either ASBT in pCMV plasmid or empty pCMV control plasmid) similarly to HEK cells, as previously described. Transfection efficiency was verified by western blotting, as previously published. A pre-incubation of the cell monolayers with DMEM supplemented with either DMSO (control) or 100 µM simvastatin was performed during 30 min. Synthetic mixed micelles containing vitamin D forms were diluted in DMEM (1:5) to avoid cytotoxicity [23](data not shown). Apical uptake of vitamin D forms was determined after a 1 h-incubation with a solution of micellar vitamin D containing either DMSO or 100 µM simvastatin (final concentration of DMSO in both conditions: 0.01%). The % of vitamin D taken up was estimated as the quantity of vitamin D present in the harvested cells divided by the sum of the quantity of vitamin D remaining in the apical chamber and that present in the harvested cells.

ASBT = test: Uptake by Caco-2 cells with ASBT inhibition by simvastatin; format: in vitro ADME, human; settings: 100 µM simvastatin (ASBT inhibitor), n = 3
Method: as §1, with “Cells were either harvested (control) or they received apical medium containing vitamin D-free mixed micelles for 1 h.” left out

| Compound | log P [1] | uptake rate by Caco-2 cells at high concentration (Caco-2 clone TC-7 cells) [%] | uptake rate by Caco-2 cells at low concentration (Caco-2 clone TC-7 cells) [%] | decrease of uptake in the presence of ezetimibe glucuronide (NPC1L1) | decrease of uptake in the presence of BLT1 (SR-BI) | incorporation efficiency into synthetic mixed micelles [2] [%] | fold improvement of solubilization into mixed micelles compared to 25-hydroxycholecalciferol ([2]; vs 25-hydroxycholecalciferol) [fold] | fold improvement of solubilization into mixed micelles compared to cholecalciferol ([2]; vs cholecalciferol) [fold] | effect of ASBT overexpression on uptake (human ASBT) | decrease of uptake in the presence of simvastatin (ASBT) |
| --- | --- | --- | --- | --- | --- | --- | --- | --- | --- | --- |
| C=C1/C(=C\C=C2/CCC[C@]3(C)[C@@H]([C@H](C)CCCC(C)C)CC[C@@H]23)C[C@@H](O)C[C@@H]1O [1α(OH)D3, 1-α-hydroxycholecalciferol] | 6.8 | 25 | 18 | but not | not significantly modified | 62 | 2.9 | 1.6 | changed neither | ~15% |
| C=C1CC[C@H](O)C/C1=C/C=C1\CCC[C@]2(C)[C@@H]([C@H](C)CCCC(C)(C)O)CC[C@@H]12 [25(OH)D3, 25-hydroxycholecalciferol] | 6.2 | 34 | 29 | but not | not significantly modified | 21 |  |  |  |  |
| C=C1CC[C@H](O)C/C1=C/C=C1\CCC[C@]2(C)[C@@H]([C@H](C)CCCC(C)C)CC[C@@H]12 [D3, cholecalciferol] | 7.9 | 18 | 10 | 30% | 31% | 39 |  |  | changed neither | about 24% |
